Drawing on ChEMBL document CHEMBL1806473, “Structure-based optimization of click-based histone deacetylase inhibitors” (Eur J Med Chem, 2011), this text covers IC50 for 13 compounds.

The test has as its target Histone deacetylase. The test is described as follows: Inhibition of HDAC in human HeLa cells using Ac-Arg-Gly-Lys(Ac)-AMC as fluorescent substrate after 20 mins by fluorescence assay. It counts as cell-based.

Turning to `CCC(/C=C/c1ccccc1)n1cc(/C=C/C(=O)NO)nn1` (stereo not drawn), the IC50 (commonly the midpoint of a concentration-inhibition curve) came out at 55 nM.

For the compound `CCCC(/C=C/c1ccccc1)n1cc(/C=C/C(=O)NO)nn1` (stereo not drawn), the IC50 was found to be 132 nM.

In turn, `CCCCC(/C=C/c1ccccc1)n1cc(/C=C/C(=O)NO)nn1` (stereo not drawn) registered an IC50 of 137 nM.

`CC(C)(C)C(/C=C/c1ccccc1)n1cc(/C=C/C(=O)NO)nn1` (stereo not drawn) had an IC50 of 18 nM.

The compound `CC(C)CC(/C=C/c1ccccc1)n1cc(/C=C/C(=O)NO)nn1` (stereo not drawn) had an IC50 of 838 nM.

`O=C(/C=C/c1cn(C(/C=C/c2ccccc2)C2CCC2)nn1)NO` (stereo not drawn) displayed an IC50 of 54 nM.

As for `O=C(/C=C/c1cn(C(/C=C/c2ccccc2)C2CCCC2)nn1)NO` (stereo not drawn), the IC50 is on record as 115 nM.

Compound `C=CCC(/C=C/c1ccccc1)n1cc(/C=C/C(=O)NO)nn1` (stereo not drawn) showed an IC50 of 90 nM.

For the compound `O=C(/C=C/c1cn(C(/C=C/c2ccccc2)Cc2nccs2)nn1)NO` (stereo not drawn), the half-maximal inhibitory concentration (IC50) worked out at 171 nM.

In the case of `O=C(/C=C/c1cn(C(/C=C/c2ccccc2)Cc2cccc(-c3ccccc3)c2)nn1)NO` (stereo not drawn), the IC50 is recorded as 403 nM.

`O=C(/C=C/c1cn(C(/C=C/c2ccccc2)Cc2cccc(Oc3ccccc3)c2)nn1)NO` (stereo not drawn) displayed an IC50 of 510 nM.

For `O=C(/C=C/c1cn(C(/C=C/c2ccccc2)Cc2cccc3ccccc23)nn1)NO` (stereo not drawn), the 50% inhibitory concentration (IC50) worked out at 111 nM.

Regarding `O=C(/C=C/c1cn(C(/C=C/c2ccccc2)Cc2ccc3ccccc3c2)nn1)NO` (stereo not drawn), the IC50 stood at 94 nM.
